Experiments:
[1] = CO2 brine sparge test for sweet corrosive systems; settings: 50 ppm active component, 24 hour test, 3.5 hours precorrosion, by weight loss
Method: The C02 brine sparge test is a reliable, quick test to screen compounds as corrosion inhibitors in "sweet" corrosive systems. A laboratory brine solution is sparged with stirring with 99.9% grade C02 for about one hour before immersing cleaned and weighed corrosion coupons. A M-1010 Pair@ meter was used to monitor the corrosion rate of each test cell. After one to two hours the corrosion rate reached a "steady state", but a precorrosion period of 3.5 hours was used for consistency before the test inhibitor was added. The precorroding period in the […] brine solution is very important. This provides a precor- roded test surface thereby minimizing surface preparation variations and also provides at least a minimal corrosion product layer without inhibitor in it against which the test inhibitor must work. This step is important, because in the equipment, the inhibitor is only rarely used from day one and then it is used on rusted steel and not freshly sand-blasted surfaces.
The inhibitors were injected below the brine surface at 50 ppm based on the active component. The 24 hour test period was monitored with a M-1010 PAIR meter as a "back-up", but the corrosion rates and percent protection were determined by weight loss measurements.

Anaerobes = assay: standard laboratory biocide screening, mixed culture; assay type: cell-based; settings: 800 ppm, 24 hours exposure, extinction dilution in Difco Fluid Thioglycollate broth, 35° C
Method: (§1) The compound of Example 4 was tested for efficacy using a standard laboratory screening procedure. The compounds were tested against a mixed culture of aerobic and anaerobic bacteria, including sulfate reducers. The test medium consisted of aged artificial sea water with 0.1 gms/liter of nutrient broth added. The medium was purged with nitrogen to remove oxygen and inoculated with 10 mis/liter of a mixed culture of aerobic and anaerobic bacteria obtained from oilfield waters. Aliquots (50 ml) were dispensed into sterile, nitrogen-filled serum vials. Concentrations of the test compounds were prepared by adding the appropriate amount of a 5% solution of the compound to 50 mls of test medium. After 24 hours, exposure levels of aerobic, anaerobic and sulfate reducing bacteria were enumerated.

Sulfate Reducers = assay: as above; assay type: cell-based; settings: 800 ppm, 24 hours exposure, extinction dilution in modified Sulfate API broth, 35° C
Method: as §1

Aerobes = assay: as above; assay type: cell-based; settings: 24 hours exposure, Standard Plate Count, Difco Plate Count Agar, 35° C, read-out: Aerobes (% killed)
Method: as §1

SMILES | Percent Protect [1] | further results
S=C(S)NCCN(CCNC(=S)S)C(=S)S [Example 7] | 92 | 
S=C(S)NCCNC(=S)S [Example 2] | 85 | 
S=C(S)NCCCN1CCN(CCCNC(=S)S)CC1 [Example 3] | 96 | 
CCCCN(CCCC)C(=S)S [Example 1] | 92 | 
CCCCCCCCN(CCCNC(=S)S)C(=S)S [Example 8] | 96 | 
S=C(S)NCCCCCCN(CCCCCCNC(=S)S)C(=S)S [Example 6] | 96 | 
S=C(S)NCCN(CCN(CCN(CCNC(=S)S)C(=S)S)C(=S)S)C(=S)S [Example 5] | 97 | 
S=C(S)NCCCCC(CCCNC(=S)S)CNC(=S)S (centres unmarked) [Example 4] | 99 | Surviving Bacteria/ml Anaerobes (Anaerobes): 10 mL⁻¹; Surviving Bacteria/ml Sulfate Reducers (Sulfate Reducers): 10 mL⁻¹; killing at 800 ppm (Aerobes): 99%

From EP0349681A1, “Methods for treating hydrocarbon recovery operations and industrial waters” (PETROLITE CORPORATION, priority 1988, dated 1990)
